Test results taken from patent publication US7115665B1, “Inhibitors of endo-exonuclease activity for treating cancer” (Onocozyme Pharma, Inc., priority 2000, dated 2006).
Where two headings read alike, the source gives them in different places.

How the values were obtained:
human endo-exonuclease = assay: Endo-exonuclease nuclease activity inhibition assay; type: biochemical
Method: The cultured cells were detached with trypsin-EDTA and the cell suspensions were centrifuged at 4° C. with a force of 700 g for 10 minutes. The cell pellets were washed twice with cold phosphate buffered saline (PBS). The cells were then resuspended and sonicated in 20 mM Tris-HCl, pH 7.5, containing 5 mM EDTA and 1 mM PMSF (buffer A). The resulting cell lysis suspensions were centrifuged at 4° C. at 10,000 g for 15 min. […] After washing extensively with buffer A, (i.e. until the A280 of the eluates were zero), the column was then eluted with buffer A containing 3.5 M MgCl2 to elute the endo-exonuclease. The eluted endo-exonuclease was dialyzed extensively against buffer A with at least two changes of buffer and one change of distilled water. The endo-exonuclease was then concentrated by lyophilization.
One unit of activity was defined as the amount of deoxyribonuclease that renders 1 μg of DNA acid-soluble in 30 min at 37° C. For the inhibition assay with the drugs, the drugs were added to the endo-exonuclease prior to the start of the nuclease reaction.

H520 NSCLC cells = assay: cells; details: read-out: LC50
H460 NSCLC cells = assay: cells; details: read-out: LC50
H661 NSCLC cells = assay: cells; details: read-out: LC50
[1] = system: MCF-7 breast cancer cells; details: read-out: LC50; MCF-7, 2 day exposure
HT29 colon cancer cells [2] = details: read-out: LC50; HT29, 2 day exposure
[3] = system: MCF-7 breast cancer cells; assay: cells; details: Homo sapiens, read-out: LC50
HT29 colon cancer cells [4] = assay: cells; details: Homo sapiens, read-out: LC50
MCF7 cells = assay: Cell survival, clonogenic assay; type: cell-based, human; details: 1 week growth
HeLa cells = assay: Cell survival, clonogenic assay; type: cell-based, human; details: 1 week growth
[5] = system: normal primary human cells (human primary fibroblast cells); assay: Cell survival, clonogenic assay; type: cell-based; details: same conditions (0.1 mM to 1 mM)
Source text: These cells are normal human skin fibroblasts.

cancer cells = assay: Efficiency of drug combination at killing cancer cells; type: cell-based; details: FIG. 4; efficiency from LC50 ratios
[6] = system: Lewis lung carcinoma (M47) primary tumour
Method: Lewis Lung Carcinoma Cell Line and Cell Culture: The Lewis lung carcinoma clone, M47, is a metastatic model. […] For tumour induction, cells were washed three times with phosphate buffer solution. They were then re-suspended at a dilution of 1×10^6 cells/0.1 ml. Only cells where viability was >95% were used for in vivo studies.
The mouse strain used in this study was C57BL/10. After one-week of acclimatization, cells were transplanted into the mice subcutaneously, as a suspension of tumour cells. All animals were inoculated at the same site.
To measure the effect of drugs on the primary tumour, drug solutions were administered by intraperitoneal (ip) injection every two days. Animals were subjected, on a daily basis, to general examination. Tumour growth was monitored over time. To determine the effect of drugs on tumour metastasis, the tumours were allowed to reach a size of 0.5–1.0 cm^3. Mice were randomized into various groups and the drugs were then given by ip. At the end of each experiment, animals were sacrificed and autopsied. Tumours, organs or both were removed under sterile conditions. Tumours were weighed. Organs were examined for gross pathological changes and then fixed in formalin. Lungs were fixed in Bouin's fixative and lung surface metastases were counted using a stereomicroscope.
The Lewis lung carcinoma clone, M47, with a high metastatic potential to the lung was used. […] The cell used was confirmed to be free of mycoplasma. Cells were maintained in RPMI-1640 medium supplemented with 10% fetal bovine serum and 1% penicillin-streptomycin, under 5% CO2. Cells were then propagated and stocks of the same passages were established and stored in liquid nitrogen. Oncozyme studies were done with the same stock of cells and same passage number.
For tumour induction, cells were grown to 70% confluence in complete medium and then collected using trypsin-EDTA solution [0.05% trypsin 0.53 mM EDTA-4Na in HBSS without Ca++. Mg++, and NaHCO3; Celigro No. 25–052-Li]. Cells were then centrifuged and washed three times with phosphate buffer solution [D-PBS, Ca++ and Mg++free; Cellgro No. 21–031-LV], and resuspended at a dilution of 0.1 to 1×10^6 cells/0.1 ml. Viability was examined by trypan blue staining and only cells in which the viability was >95% were used for in vivo studies.
The mouse strain used in this study is C57BL/10 from Charles River Inc. Animals were housed 5 per cage and were fed a diet of animal chow and water ad libitum. After one week acclimatization, LLC cells were transplanted subcutaneously, as a suspension of tumour cells [2−5×10^5 viable cells per 0.1 ml], in the axillary region of the right flank. All animals were inoculated at the same site. Animals were subjected, on a daily basis, to general examination. Tumour growth was monitored every second or third day using calipers. Parameters measured were: tumour measured along the longest axis (length) and the perpendicular shortest axis (width) and the relative tumour volume (in cm^3) was calculated by the formula: [length (cm)×(width cm)^2] (approximately 10–15 days), mice were randomized into one of the following groups:
The conditions for this group were identical to the group used for the experiments on metastases with the exception that the primary tumour was not removed, and the animals were maintained until the tumours reached a large size that justified animal sacrifice, or the animals manifested a discomfort that justified their sacrifice (reduced mobility, severe respiratory symptoms, etc.).
Control animals were given the same volume of saline solution [0.9% sodium chloride]. The dose of each drug was normalized to body weight per animal.
(§1) The pentamidine and cisplatinum were injected by intraperitoneal injections. Adriamycin was injected intravenously.

[7] = system: Lewis lung carcinoma (M47) lung metastases; assay: Lewis lung carcinoma lung metastases; type: in vivo, mouse (C57BL/10); details: for Number of Metastases/Lung: Blank 34 ± 3
Source text: All animals were inoculated at the same site.
Tumour growth was monitored over time. […] Tumours, organs or both were removed under sterile conditions. Tumours were weighed.
Animals were subjected to surgery to remove the primary tumour. The mice were lightly anesthetized with Forane. The skin overlying the tumour was cleaned with betadine and ethanols, in a laminar flow hood. A small skin incision (0.5–1 cm) was made using a sterile scalpel, and the tumour was carefully separated from the normal tissues (skin and muscle). Lewis Lung carcinoma cells (at early stage of growth; 1–3 weeks) are a well localized tumour and separation was easy to achieve without any significant damage to normal tissues. The tumour was removed, weighed and in some cases fixed for histopathology purposes. The wound was closed with surgical stainless steel clips (Autoclips; 9 mm; Clay Adams, Inc. Parsippany, N.J.). This site was further disinfected with betadine and the animal was housed as described earlier.
In this group, mice were randomized after surgery into a group of 5 per cage. Cages were randomly assigned to specific experimental groups. The mice were then labelled by numbers using the “ear punching” method. Mice were checked on a daily basis to ensure the absence of infection. Animals with discomfort were sacrificed immediately. For each experiment, an additional extra spared group of control mice was included to determine the optimal timing for sacrifice in order to obtain a significant number of well localized lung metastases. This group was subjected to the same experimental procedure as group 1 with the exception of drug treatment.
as §1
At the end of each experiment (a total of 5–8 weeks), animals were sacrificed by dislocation and autopsied. Tumours, organs or both were removed under sterile conditions [using a laminar flow hood]. Tumours were weighed. […] Lungs were fixed in 10% Bouin's fixative diluted in a formalin solution, and lung surface metastases were counted using a stereomicroscope at 4× magnification or a magnifying-glass, and in some cases lungs were embedded in paraffin wax according to standard procedures. Embedded tissues were used to confirm metastases and further examine histopathological changes.

[8] = mouse, in vivo, ip
Method: (§2) A preliminary study was conducted on non-tumour bearing mice to examine the maximal tolerable doses of pentamidine that can be used for antitumour studies. Three intraperitoneal injections (day 1, day 3, and day 5) were tested of 25, 50, 100 and 200 mg/Kg of body weight respectively.

[9] = system: RIF-1 radiation-induced fibrosarcoma tumour; assay: RIF tumour mouse model, polymer implant
[10] = Toxicity / maximal tolerable dose in non-tumour bearing mice; details: 100 mg/Kg ip, days 1, 3, 5, FIG. 8
Method: as §2

In the case of CC(=O)NCC(=O)O.CC(=O)NCC(=O)O.N=C(N)c1ccc(N=NNc2ccc(C(=N)N)cc2)cc1 [Berenil, berenil], the “Percent of Inhibition of endo-exonuclease activity” value (human endo-exonuclease; 2 mM) is reported as 17%, the CC50 (H520 NSCLC cells; H520, 2 day exposure) is reported as > 4000 µM and the CC50 (H460 NSCLC cells; H460, 2 day exposure) is reported as > 4000 µM. The CC50 (H661 NSCLC cells; H661, 2 day exposure) was > 4000 µM, the CC50 [1] was 3000 µM and the CC50 (HT29 colon cancer cells [2]) was > 4000 µM.
For Cn1cc(NC(=O)c2cc(NC(=O)c3cc(NC=O)cn3C)cn2C)cc1C(=O)NCCC(=N)N [Distamycin A, distamycin A], the “Percent of Inhibition of endo-exonuclease activity” value (human endo-exonuclease; 38 μM) was 30%, the CC50 (H520 NSCLC cells; H520, 2 day exposure) was > 2000 µM and the CC50 (H460 NSCLC cells; H460, 2 day exposure) was > 2000 µM. The CC50 (H661 NSCLC cells; H661, 2 day exposure) was > 2000 µM, the CC50 [1] was 1520 µM and the CC50 (HT29 colon cancer cells [2]) was > 2000 µM.
In the case of COc1cc([C@@H]2c3cc4c(cc3[C@@H](O[C@@H]3O[C@@H]5CO[C@@H](C)O[C@H]5[C@H](O)[C@H]3O)[C@H]3COC(=O)[C@H]23)OCO4)cc(OC)c1O [Etoposide, etoposide], the “Percent of Inhibition of endo-exonuclease activity” value (human endo-exonuclease; 50 μM) is reported as 0%, the CC50 (H520 NSCLC cells; Homo sapiens, NCI-H520, 48 h) is reported as > 34000 µM and the CC50 (H520 NSCLC cells; Homo sapiens, NCI-H520, 96 h) is reported as > 34000 µM. The CC50 (H460 NSCLC cells; Homo sapiens, NCI-H460, 48 h) was > 34000 µM, the CC50 (H460 NSCLC cells; Homo sapiens, NCI-H460, 96 h) was > 34000 µM and the CC50 (H661 NSCLC cells; Homo sapiens, NCI-H661, 48 h) was 28000 µM. It also gave a CC50 (H661 NSCLC cells; Homo sapiens, NCI-H661, 96 h) of 15600 µM, a CC50 ([3]; MCF7, 48 h) of 1000 µM and a CC50 ([3]; MCF7, 96 h) of 1100 µM. For the same molecule, the CC50 (HT29 colon cancer cells [4]; HT-29, 48 h) was 700 µM and the CC50 (HT29 colon cancer cells [4]; HT-29, 96 h) was 400 µM.
In the case of CO[C@@]12[C@H](COC(N)=O)C3=C(C(=O)C(C)=C(N)C3=O)N1C[C@@H]1N[C@@H]12 [Mitomycin C, mitomycin C], the “Percent of Inhibition of endo-exonuclease activity” value (human endo-exonuclease; 50 μM) is reported as 0%.
In the case of N=C(N)c1ccc(OCCCCCOc2ccc(C(=N)N)cc2)cc1 [Pentamidine, pentamidine], the “Percent of Inhibition of endo-exonuclease activity” value (human endo-exonuclease; 25 μM) is reported as 37%, the “Percent of Inhibition of endo-exonuclease activity” value (human endo-exonuclease; 50 μM) is reported as 50% and the “Percent of Inhibition of endo-exonuclease activity” value (human endo-exonuclease; 100 μM) is reported as 100%. The “Concentration at which compound began to kill the cancer cells” value (MCF7 cells) was 0.1 mM, the Lethal concentration (MCF7 cells) was 1 mM and the “Concentration at which compound began to kill the cancer cells” value (HeLa cells) was 0.1 mM. The Lethal concentration (HeLa cells) was 1 mM, the “Effect on survival of normal primary human cells” value [5] was “no effect” and the CC50 (H520 NSCLC cells; Homo sapiens, NCI-H520, 48 h) was 240 µM. For the same molecule, the CC50 (H520 NSCLC cells; Homo sapiens, NCI-H520, 96 h) was 130 µM, the CC50 (H460 NSCLC cells; Homo sapiens, NCI-H460, 48 h) was 1340 µM and the CC50 (H460 NSCLC cells; Homo sapiens, NCI-H460, 96 h) was 160 µM. The CC50 (H661 NSCLC cells; Homo sapiens, NCI-H661, 48 h) was 150 µM, the CC50 (H661 NSCLC cells; Homo sapiens, NCI-H661, 96 h) was 70 µM and the “Efficiency at killing cancer cells of cisplatin combined with pentamidine versus cisplatin alone” value (cancer cells) was “up to 16,000 times”. For the same molecule, the “Antitumour activity compared with cisplatin at 3–4 mg/Kg/ip” value ([6]; FIG. 13) was “as active as cisplatin”, the “Primary tumour effect, 50 mg/Kg pentamidine combined with adriamycin” value ([6]; FIG. 18) was “some beneficial effect” and the “Tumour response, combined with 3 mg/Kg cisplatin” value ([6]; FIGS. 14a and 14b) was “some animals showed a complete regression of the tumours”. The “Inhibition of cancer growth compared with cisplatinum” value ([6]; daily injection, FIG. 7) was “as effective in inhibiting the cancer growth as cisplatinum”, the “Most active dose on growth of LLC primary tumour” value ([6]; ip, p<0,01, FIGS. 10 to 15) was 50 mg/kg and the “Number of Metastases/Lung” value ([7]; 25 mg/kg) was 23 ± 3. For the same molecule, the “Inhibition of lung metastases versus saline-treated control” value ([7]; 50 mg/Kg, p<0.001, FIG. 16) was “more than 50%”, the “Number of Metastases/Lung” value ([7]; 50 mg/kg) was 10 ± 2 and the “Effect on metastases, 50 mg/Kg/ip pentamidine with 4 mg/kg/ip cisplatin” value ([7]; FIG. 17) was “enhanced effect”. The “Effect on metastases, 50 mg/Kg/ip pentamidine with 5 mg/kg adriamycin/iv” value ([7]; FIG. 20) was “some beneficial effect”, the “Effect on lung metastases” value ([7]; doses of 10–25 mg/Kg) was “no significant effect” and the “Reduction of lung metastases” value ([7]; highest dosage tested) was “reduced metastases in a dose dependant manner by a factor of three”. The “Most active dose on lung metastases” value ([7]; p<0.01) was 50 mg/kg, the Highest tolerated dose [8] was 50 mg/kg and the CC50 ([3]; MCF7, 48 h) was 150 µM. The CC50 ([3]; MCF7, 96 h) was 80 µM, the CC50 (HT29 colon cancer cells [4]; HT-29, 48 h) was 270 µM and the CC50 (HT29 colon cancer cells [4]; HT-29, 96 h) was 60 µM. For the same molecule, the “Efficacy at slowing tumour growth” value ([9]; biodegradeable polymer tumour implant, 100 mm^3 RIF tumours, FIG. 5) was “intermediate in its efficacy at slowing tumour growth between the saline control and 5-fluorouracil”, the “Side effects in test mice” value ([9]; polymer implant plus radiation) was “no obvious signs of any side effects” and the “Tumour growth, combination with radiation” value ([9]; polymer implant plus radiation 24 hours after implant, FIG. 6) was “no significant tumour growth for a much longer period”. The “Acute toxicity (death)” value [10] was “died because of acute toxicity”.
With COc1cccc2c1C(=O)c1c(O)c3c(c(O)c1C2=O)C[C@@](O)(C(=O)CO)C[C@@H]3O[C@H]1C[C@H](N)[C@H](O)[C@H](C)O1 [adriamycin] the Mortality ([6]; 7.5 mg/Kg/iv, highest dose tested, FIG. 19) was 100% and the “Antitumour effect on primary tumour” value ([6]; minimal dose of 5 mg/Kg iv) was “potent antitumour effect”.
